# From PMC6941952, “A homogeneous bioluminescent immunoassay to probe cellular signaling pathway regulation” (Communications Biology, 2020)
# System: phospho-IκBα (Ser32)
# Test: NanoBiT cell-based immunoassay, phosphorylated IκBα in MCF-7 cells
# Parameters: species or system human
# Details: for Raw data / Subtract reagent background: TNF
# Method: Prior to NanoBiT Cell-Based Immunoassay, 50,000 cells were seeded in 160 µl of complete growth media per well of a 96-well plate and incubated overnight. The cells were checked under microscope and it was determined that 50,000 cells per well in 96-well plate is under 90% confluency for all cells tested. If necessary, the cell culture media were replaced with serum-free media after the cells were stably adherent on the plate and incubated overnight. To treat cells with activators or inhibitors, medium was changed to 30 µl of medium containing inhibitors. If activation of a specific pathway is needed, the cells were stimulated with 10 µl of medium containing activators. To lyse the cells, 10 µl of lysis buffer containing 0.1% digitonin diluted in 1X immunoassay buffer with protease and phosphatase inhibitors was added and the plates were mixed vigorously for 20 min. Then, 50 µl of an antibody mix containing two primary antibodies against the target protein and NanoBiT detecting antibodies (0.3 µl each per well), diluted in 1X immunoassay buffer was added to the lysates. The plates were incubated at 23 °C for 90 min, followed by the addition of 25 µl of Nano-Glo® reagent consisting of Nano-Glo® Luciferase Assay Substrate mixed with 1X immunoassay buffer. Luminescence was measured using a plate-reading luminometer.
# In all, 50,000 MCF-7 cells were seeded in 160 µl complete growth medium per well of a 96-well plate and incubated overnight. Half of the cells were treated with 50 ng per ml TNFα and half with vehicle. Cells were lysed as described above and a mixture of NanoBiT secondary antibodies with primary antibodies at the matrix concentrations described in Fig. 2a were added. After 90 min incubation, the Nano-Glo® reagent was added to the reactions as described above and luminescence was measured using a plate-reading luminometer.
# Single dose or dose response inhibitor treatments were performed prior to activation of the pathways as follows. For IκBα, the cells were treated in 30 µl medium with IKK16 or MG132 for 60 min before the addition of 10 µl of DMEM containing appropriate concentration of TNFα. To measure phosphorylation of AKT or STAT3, the corresponding NanoBiT immunoassays were developed with MCF-7 or A431 cells, respectively, according the same scheme used to develop the IκBα assay using the primary antibodies for AKT and STAT3 described in the reagents section. For the AKT assay, MCF-7 cells were incubated overnight in phenol-red free DMEM medium (Gibco #21063-029) without serum. Treatment with LY294002 was performed in 30 µl medium and cells were incubated for 60 min before the addition of 1 µM Insulin. To measure STAT3 phosphorylation, A431 cells were incubated overnight in DMEM medium without serum. […] After addition of the stimulators, the cells were incubated for additional times as follows. IκBα phosphorylation and degradation analyses required both time courses and single time points as described in figures. […] The NanoBiT immunoassay protocol was followed as described above.
# All 96-well assay plates were read using a GloMax® 96 Microplate Luminometer from Promega. The instrument was set to 0.5 s integration time. In order to obtain net change of signal, the reagent background values (signal from the well containing all reagent except primary antibodies) were subtracted from the sample values. To plot and analyze the data, Microsoft Excel and GraphPad Prism® Software were used. IC50 values were determined by using a nonlinear regression fit to a sigmoidal dose response (variable slope).
# [1] = plate #3, IkB Ab #3 75 ng/ml, P-IkB Ab #2 75 ng/ml
# [2] = plate #3, IkB Ab #3 75 ng/ml, P-IkB Ab #2 150 ng/ml
# [3] = plate #3, IkB Ab #3 75 ng/ml, P-IkB Ab #2 300 ng/ml
# [4] = plate #3, IkB Ab #3 75 ng/ml, P-IkB Ab #2 600 ng/ml
# [5] = plate #3, IkB Ab #3 75 ng/ml, P-IkB Ab #2 1200 ng/ml
# [6] = plate #3, IkB Ab #3 150 ng/ml, P-IkB Ab #2 75 ng/ml
# [7] = plate #3, IkB Ab #3 150 ng/ml, P-IkB Ab #2 150 ng/ml
# [8] = plate #3, IkB Ab #3 150 ng/ml, P-IkB Ab #2 300 ng/ml
# [9] = plate #3, IkB Ab #3 150 ng/ml, P-IkB Ab #2 600 ng/ml
# [10] = plate #3, IkB Ab #3 150 ng/ml, P-IkB Ab #2 1200 ng/ml
# [11] = plate #3, IkB Ab #3 300 ng/ml, P-IkB Ab #2 75 ng/ml
# [12] = plate #3, IkB Ab #3 300 ng/ml, P-IkB Ab #2 150 ng/ml
# [13] = plate #3, IkB Ab #3 300 ng/ml, P-IkB Ab #2 300 ng/ml
# [14] = plate #3, IkB Ab #3 300 ng/ml, P-IkB Ab #2 600 ng/ml
# [15] = plate #3, IkB Ab #3 300 ng/ml, P-IkB Ab #2 1200 ng/ml
# [16] = plate #3, IkB Ab #3 600 ng/ml, P-IkB Ab #2 75 ng/ml
# [17] = plate #3, IkB Ab #3 600 ng/ml, P-IkB Ab #2 150 ng/ml
# [18] = plate #3, IkB Ab #3 600 ng/ml, P-IkB Ab #2 300 ng/ml
# [19] = plate #3, IkB Ab #3 600 ng/ml, P-IkB Ab #2 600 ng/ml
# [20] = plate #3, IkB Ab #3 600 ng/ml, P-IkB Ab #2 1200 ng/ml
# [21] = plate #3, IkB Ab #3 1200 ng/ml, P-IkB Ab #2 75 ng/ml
# [22] = plate #3, IkB Ab #3 1200 ng/ml, P-IkB Ab #2 150 ng/ml
# [23] = plate #3, IkB Ab #3 1200 ng/ml, P-IkB Ab #2 300 ng/ml
# [24] = plate #3, IkB Ab #3 1200 ng/ml, P-IkB Ab #2 600 ng/ml
# [25] = plate #3, IkB Ab #3 1200 ng/ml, P-IkB Ab #2 1200 ng/ml
substance,measurement,setting,value
TNFα,Fold change (TNF-treated /Non-treated),"plate #2, IkB Ab #2 (Mouse) 600 ng/ml, P-IkB Ab #1 (Rabbit) 1200 ng/ml, listed as TNF",0.8
same,Fold change (TNF-treated /Non-treated),"plate #2, IkB Ab #2 (Mouse) 1200 ng/ml, P-IkB Ab #1 (Rabbit) 75 ng/ml",1.511
same,Fold change (TNF-treated /Non-treated),"plate #2, IkB Ab #2 (Mouse) 1200 ng/ml, P-IkB Ab #1 (Rabbit) 75 ng/ml, listed as TNF",1.5
same,Fold change (TNF-treated /Non-treated),"plate #2, IkB Ab #2 (Mouse) 1200 ng/ml, P-IkB Ab #1 (Rabbit) 150 ng/ml",2.468
same,Fold change (TNF-treated /Non-treated),"plate #2, IkB Ab #2 (Mouse) 1200 ng/ml, P-IkB Ab #1 (Rabbit) 150 ng/ml, listed as TNF",2.5
same,Fold change (TNF-treated /Non-treated),"plate #2, IkB Ab #2 (Mouse) 1200 ng/ml, P-IkB Ab #1 (Rabbit) 300 ng/ml",2.168
same,Fold change (TNF-treated /Non-treated),"plate #2, IkB Ab #2 (Mouse) 1200 ng/ml, P-IkB Ab #1 (Rabbit) 300 ng/ml, listed as TNF",2.2
same,Fold change (TNF-treated /Non-treated),"plate #2, IkB Ab #2 (Mouse) 1200 ng/ml, P-IkB Ab #1 (Rabbit) 600 ng/ml",2.1086
same,Fold change (TNF-treated /Non-treated),"plate #2, IkB Ab #2 (Mouse) 1200 ng/ml, P-IkB Ab #1 (Rabbit) 600 ng/ml, listed as TNF",2.1
same,Fold change (TNF-treated /Non-treated),"plate #2, IkB Ab #2 (Mouse) 1200 ng/ml, P-IkB Ab #1 (Rabbit) 1200 ng/ml",1.784
same,Fold change (TNF-treated /Non-treated),"plate #2, IkB Ab #2 (Mouse) 1200 ng/ml, P-IkB Ab #1 (Rabbit) 1200 ng/ml, listed as TNF",1.8
same,Raw data,[1],20510
same,Subtract reagent background,[1],5320
same,Raw data,[2],20430
same,Subtract reagent background,[2],5240
same,Raw data,[3],19120
same,Subtract reagent background,[3],3930
same,Raw data,[4],17590
same,Subtract reagent background,[4],2400
same,Raw data,[5],16090
same,Subtract reagent background,[5],900
same,Raw data,[6],27550
same,Subtract reagent background,[6],12360
same,Raw data,[7],26450
same,Subtract reagent background,[7],11260
same,Raw data,[8],24490
same,Subtract reagent background,[8],9300
same,Raw data,[9],21590
same,Subtract reagent background,[9],6400
same,Raw data,[10],19970
same,Subtract reagent background,[10],4780
same,Raw data,[11],26220
same,Subtract reagent background,[11],11030
same,Raw data,[12],24040
same,Subtract reagent background,[12],8850
same,Raw data,[13],23970
same,Subtract reagent background,[13],8780
same,Raw data,[14],20830
same,Subtract reagent background,[14],5640
same,Raw data,[15],19500
same,Subtract reagent background,[15],4310
same,Raw data,[16],24590
same,Subtract reagent background,[16],9400
same,Raw data,[17],22810
same,Subtract reagent background,[17],7620
same,Raw data,[18],23190
same,Subtract reagent background,[18],8000
same,Raw data,[19],21540
same,Subtract reagent background,[19],6350
same,Raw data,[20],20460
same,Subtract reagent background,[20],5270
same,Raw data,[21],23630
same,Subtract reagent background,[21],8440
same,Raw data,[22],23620
same,Subtract reagent background,[22],8430
same,Raw data,[23],22930
same,Subtract reagent background,[23],7740
same,Raw data,[24],22240
same,Subtract reagent background,[24],7050
same,Raw data,[25],21740
same,Subtract reagent background,[25],6550
same,Fold change (TNF-treated /Non-treated),"plate #3, IkB Ab #3 (Rabbit) 150 ng/ml, P-IkB Ab #2 (Mouse) 75 ng/ml",3.572
same,Fold change (TNF-treated /Non-treated),"plate #3, IkB Ab #3 (Rabbit) 150 ng/ml, P-IkB Ab #2 (Mouse) 150 ng/ml",2.066
same,Fold change (TNF-treated /Non-treated),"plate #3, IkB Ab #3 (Rabbit) 150 ng/ml, P-IkB Ab #2 (Mouse) 300 ng/ml",1.553
same,Fold change (TNF-treated /Non-treated),"plate #3, IkB Ab #3 (Rabbit) 150 ng/ml, P-IkB Ab #2 (Mouse) 600 ng/ml",1.339
same,Fold change (TNF-treated /Non-treated),"plate #3, IkB Ab #3 (Rabbit) 150 ng/ml, P-IkB Ab #2 (Mouse) 1200 ng/ml",0.8968
same,Fold change (TNF-treated /Non-treated),"plate #3, IkB Ab #3 (Rabbit) 300 ng/ml, P-IkB Ab #2 (Mouse) 75 ng/ml",2.895
same,Fold change (TNF-treated /Non-treated),"plate #3, IkB Ab #3 (Rabbit) 300 ng/ml, P-IkB Ab #2 (Mouse) 150 ng/ml",1.664
same,Fold change (TNF-treated /Non-treated),"plate #3, IkB Ab #3 (Rabbit) 300 ng/ml, P-IkB Ab #2 (Mouse) 300 ng/ml",1.602
same,Fold change (TNF-treated /Non-treated),"plate #3, IkB Ab #3 (Rabbit) 300 ng/ml, P-IkB Ab #2 (Mouse) 600 ng/ml",1.153
same,Fold change (TNF-treated /Non-treated),"plate #3, IkB Ab #3 (Rabbit) 300 ng/ml, P-IkB Ab #2 (Mouse) 1200 ng/ml",0.9289
same,Fold change (TNF-treated /Non-treated),"plate #3, IkB Ab #3 (Rabbit) 600 ng/ml, P-IkB Ab #2 (Mouse) 75 ng/ml",2.035
same,Fold change (TNF-treated /Non-treated),"plate #3, IkB Ab #3 (Rabbit) 600 ng/ml, P-IkB Ab #2 (Mouse) 150 ng/ml",1.414
same,Fold change (TNF-treated /Non-treated),"plate #3, IkB Ab #3 (Rabbit) 600 ng/ml, P-IkB Ab #2 (Mouse) 300 ng/ml",1.541
same,Fold change (TNF-treated /Non-treated),"plate #3, IkB Ab #3 (Rabbit) 600 ng/ml, P-IkB Ab #2 (Mouse) 600 ng/ml",1.301
same,Fold change (TNF-treated /Non-treated),"plate #3, IkB Ab #3 (Rabbit) 600 ng/ml, P-IkB Ab #2 (Mouse) 1200 ng/ml",1.1557
same,Fold change (TNF-treated /Non-treated),"plate #3, IkB Ab #3 (Rabbit) 1200 ng/ml, P-IkB Ab #2 (Mouse) 75 ng/ml",1.581
same,Fold change (TNF-treated /Non-treated),"plate #3, IkB Ab #3 (Rabbit) 1200 ng/ml, P-IkB Ab #2 (Mouse) 150 ng/ml",1.544
same,Fold change (TNF-treated /Non-treated),"plate #3, IkB Ab #3 (Rabbit) 1200 ng/ml, P-IkB Ab #2 (Mouse) 300 ng/ml",1.173
same,Fold change (TNF-treated /Non-treated),"plate #3, IkB Ab #3 (Rabbit) 1200 ng/ml, P-IkB Ab #2 (Mouse) 600 ng/ml",1.469
same,Fold change (TNF-treated /Non-treated),"plate #3, IkB Ab #3 (Rabbit) 1200 ng/ml, P-IkB Ab #2 (Mouse) 1200 ng/ml",1.2818
